Assay results taken from patent US9642831B2, “Substituted chromanes and method of use” (AbbVie S.á.r.l., priority 2014, dated 2017).

Target: F508delCFTR (Homo sapiens, UniProt P13569, DEL508-508)
Assay: Cell Surface Expression-Horse Radish Peroxidase (CSE-HRP) assay
Format: cell-based
Design: expressed in transfected cells; host or cells: CFBE41o- human lung derived epithelial cell line, doxycycline-inducible
Settings: CFBE4lo-F508delCFTR-HRP cells; for EC50: 18-24 hours at 33° C., 8-point curve, highest concentration 20 μM, luminescence readout; for Emax: maximum % activity at any tested concentration, normalized to on-plate positive control (3 μM Example 1)
Outline: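 Following 18-24 h compound exposure at 33° C. Expression was doxycycline-induced beforehand. % activity versus DMSO and a 3 μM corrector control gave maximum activity and EC50 from a variable-Hill sigmoidal fit.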

F508delCFTR, sequence (P13569 with tags, fused parts or gaps DEL508-508): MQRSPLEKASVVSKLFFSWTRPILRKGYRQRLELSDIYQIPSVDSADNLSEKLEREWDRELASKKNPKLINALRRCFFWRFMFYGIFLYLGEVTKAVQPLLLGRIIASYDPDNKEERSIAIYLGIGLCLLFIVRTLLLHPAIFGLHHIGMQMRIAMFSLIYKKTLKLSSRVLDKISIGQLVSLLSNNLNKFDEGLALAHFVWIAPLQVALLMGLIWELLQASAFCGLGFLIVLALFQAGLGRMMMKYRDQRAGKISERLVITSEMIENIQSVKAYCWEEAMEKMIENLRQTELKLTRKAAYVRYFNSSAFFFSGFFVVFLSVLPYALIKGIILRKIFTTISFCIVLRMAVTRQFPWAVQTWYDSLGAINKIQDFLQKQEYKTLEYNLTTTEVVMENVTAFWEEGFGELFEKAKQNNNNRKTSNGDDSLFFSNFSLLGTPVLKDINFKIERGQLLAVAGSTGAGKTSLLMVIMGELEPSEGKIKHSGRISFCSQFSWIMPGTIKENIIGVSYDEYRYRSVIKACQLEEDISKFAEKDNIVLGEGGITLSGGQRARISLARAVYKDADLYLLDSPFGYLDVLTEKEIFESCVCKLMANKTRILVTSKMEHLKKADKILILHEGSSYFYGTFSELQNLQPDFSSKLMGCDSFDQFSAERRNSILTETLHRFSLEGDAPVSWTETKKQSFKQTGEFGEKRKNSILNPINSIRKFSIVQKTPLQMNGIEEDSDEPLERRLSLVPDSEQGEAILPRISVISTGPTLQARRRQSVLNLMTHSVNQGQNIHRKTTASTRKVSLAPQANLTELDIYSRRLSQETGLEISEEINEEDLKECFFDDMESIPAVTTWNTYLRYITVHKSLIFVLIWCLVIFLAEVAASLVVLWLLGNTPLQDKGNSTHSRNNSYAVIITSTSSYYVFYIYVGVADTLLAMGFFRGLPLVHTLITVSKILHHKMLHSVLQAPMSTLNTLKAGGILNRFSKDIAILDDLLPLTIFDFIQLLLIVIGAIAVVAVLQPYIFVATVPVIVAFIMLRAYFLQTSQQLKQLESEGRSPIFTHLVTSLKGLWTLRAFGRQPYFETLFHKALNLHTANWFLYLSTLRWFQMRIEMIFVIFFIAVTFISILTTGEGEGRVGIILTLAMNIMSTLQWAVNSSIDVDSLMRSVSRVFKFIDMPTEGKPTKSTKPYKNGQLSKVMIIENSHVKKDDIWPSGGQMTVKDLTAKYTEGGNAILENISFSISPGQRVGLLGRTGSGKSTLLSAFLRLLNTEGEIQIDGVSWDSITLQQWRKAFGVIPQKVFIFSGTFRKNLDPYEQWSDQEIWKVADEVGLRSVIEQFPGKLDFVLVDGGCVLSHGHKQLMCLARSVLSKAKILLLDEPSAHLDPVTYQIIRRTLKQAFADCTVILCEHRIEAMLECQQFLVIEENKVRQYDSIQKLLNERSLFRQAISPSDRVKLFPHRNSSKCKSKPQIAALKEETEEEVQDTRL

Structure (SMILES)	EC50 [µM]	Emax [%]
O=C(O)c1cccc([C@H]2C[C@H](NC(=O)C3(c4ccc5c(c4)OC(F)(F)O5)CC3)c3ccccc3O2)c1 [Example 10, 3-[(2R,4S)-4-({[1-(2,2-difluoro-1,3-benzodioxol-5-yl)cyclopropyl]carbonyl}amino)-3,4-dihydro-2H-chromen-2-yl]benzoic acid]	4.1	112
COC(=O)c1cccc([C@H]2C[C@@H](NC(=O)C3(c4ccc5c(c4)OC(F)(F)O5)CC3)c3cc(C)ccc3O2)c1 [Example 11, methyl 3-[(2R,4R)-4-({[1-(2,2-difluoro-1,3-benzodioxol-5-yl)cyclopropyl]carbonyl}amino)-6-methyl-3,4-dihydro-2H-chromen-2-yl]benzoate]	0.91	102
COC(=O)c1cccc([C@H]2C[C@H](NC(=O)C3(c4ccc5c(c4)OC(F)(F)O5)CC3)c3cc(C)ccc3O2)c1 [Example 12, methyl 3-[(2R,4S)-4-({[1-(2,2-difluoro-1,3-benzodioxol-5-yl)cyclopropyl]carbonyl}amino)-6-methyl-3,4-dihydro-2H-chromen-2-yl]benzoate]	5.47	58
Cc1ccc2c(c1)[C@@H](NC(=O)C1(c3ccc4c(c3)OC(F)(F)O4)CC1)C[C@H](c1cccc(C(=O)O)c1)O2 [Example 13, 3-[(2R,4S)-4-({[1-(2,2-difluoro-1,3-benzodioxol-5-yl)cyclopropyl]carbonyl}amino)-6-methyl-3,4-dihydro-2H-chromen-2-yl]benzoic acid]	4.57	118
Cc1ccc2c(c1)O[C@@H](c1cccc(C(=O)O)c1)C[C@@H]2NC(=O)C1(c2ccc3c(c2)OC(F)(F)O3)CC1 [Example 15, 3-[(2R,4S)-4-({[1-(2,2-difluoro-1,3-benzodioxol-5-yl)cyclopropyl]carbonyl}amino)-7-methyl-3,4-dihydro-2H-chromen-2-yl]benzoic acid]	2.47	101
Cc1ccc2c(c1)O[C@@H](c1cccc(C(=O)O)c1)C[C@H]2NC(=O)C1(c2ccc3c(c2)OC(F)(F)O3)CC1 [Example 16, 3-[(2R,4R)-4-({[1-(2,2-difluoro-1,3-benzodioxol-5-yl)cyclopropyl]carbonyl}amino)-7-methyl-3,4-dihydro-2H-chromen-2-yl]benzoic acid]	0.37	108
COC(=O)c1cccc([C@H]2C[C@H](NC(=O)C3(c4ccc5c(c4)OC(F)(F)O5)CC3)c3ccc(C)cc3O2)c1 [Example 17, methyl 3-[(2R,4S)-4-({[1-(2,2-difluoro-1,3-benzodioxol-5-yl)cyclopropyl]carbonyl}amino)-7-methyl-3,4-dihydro-2H-chromen-2-yl]benzoate]	2.64	78
COC(=O)c1cccc([C@H]2C[C@@H](NC(=O)C3(c4ccc5c(c4)OC(F)(F)O5)CC3)c3ccc(C)cc3O2)c1 [Example 18, methyl 3-[(2R,4R)-4-({[1-(2,2-difluoro-1,3-benzodioxol-5-yl)cyclopropyl]carbonyl}amino)-7-methyl-3,4-dihydro-2H-chromen-2-yl]benzoate]	0.35	113
COc1cccc([C@H]2C[C@@H](NC(=O)C3(c4ccc5c(c4)OC(F)(F)O5)CC3)c3ccc(O)cc3O2)c1 [Example 20, 1-(2,2-difluoro-1,3-benzodioxol-5-yl)-N-[(2R,4R)-7-hydroxy-2-(3-methoxyphenyl)-3,4-dihydro-2H-chromen-4-yl]cyclopropanecarboxamide]	4.62	30
COC(=O)c1cccc([C@H]2C[C@@H](NC(=O)C3(c4ccc5c(c4)OC(F)(F)O5)CC3)c3cc(OC)ccc3O2)c1 [Example 21, methyl 3-[(2R,4R)-4-({[1-(2,2-difluoro-1,3-benzodioxol-5-yl)cyclopropyl]carbonyl}amino)-6-methoxy-3,4-dihydro-2H-chromen-2-yl]benzoate]	0.8	142
O=C(O)c1cccc([C@H]2C[C@@H](NC(=O)C3(c4ccc5c(c4)OC(F)(F)O5)CC3)c3ccc(O)cc3O2)c1 [Example 23, 3-[(2R,4R)-4-({[1-(2,2-difluoro-1,3-benzodioxol-5-yl)cyclopropyl]carbonyl}amino)-7-hydroxy-3,4-dihydro-2H-chromen-2-yl]benzoic acid]	≥ 20	12
COc1ccc2c(c1)O[C@@H](C1CCCC(C(=O)O)C1)C[C@H]2NC(=O)C1(c2ccc3c(c2)OC(F)(F)O3)CC1 (stereo partly drawn) [Example 35, 3-[(2R,4R)-4-({[1-(2,2-difluoro-1,3-benzodioxol-5-yl)cyclopropyl]carbonyl}amino)-7-methoxy-3,4-dihydro-2H-chromen-2-yl]cyclohexanecarboxylic acid]	1.16	82
O=C(O)C1CCCC([C@H]2C[C@@H](NC(=O)C3(c4ccc5c(c4)OC(F)(F)O5)CC3)c3ccc(F)cc3O2)C1 (stereo partly drawn) [Example 36, 3-[(2R,4R)-4-({[1-(2,2-difluoro-1,3-benzodioxol-5-yl)cyclopropyl]carbonyl}amino)-7-fluoro-3,4-dihydro-2H-chromen-2-yl]cyclohexanecarboxylic acid]	1.82	78
COC(=O)c1cccc([C@H]2C[C@@H](NC(=O)C3(c4ccc5c(c4)OC(F)(F)O5)CC3)c3ccc(F)cc3O2)c1 [Example 39, methyl 3-[(2R,4R)-4-({[1-(2,2-difluoro-1,3-benzodioxol-5-yl)cyclopropyl]carbonyl}amino)-7-fluoro-3,4-dihydro-2H-chromen-2-yl]benzoate]	1.72	82
O=C(O)c1ccc2c(c1)OCCC2NC(=O)C1(c2ccc3c(c2)OC(F)(F)O3)CC1 (centres unmarked) [Example 42, 4-({[1-(2,2-difluoro-1,3-benzodioxol-5-yl)cyclopropyl]carbonyl}amino)-3,4-dihydro-2H-chromene-7-carboxylic acid]	≥ 20	5
Cc1ccc2c(c1)O[C@@H](c1cccc(C(=O)NC3CCC(C)(C(=O)O)C3)c1)C[C@H]2NC(=O)C1(c2ccc3c(c2)OC(F)(F)O3)CC1 (stereo partly drawn) [Example 43, 3-({3-[(2R,4R)-4-({[1-(2,2-difluoro-1,3-benzodioxol-5-yl)cyclopropyl]carbonyl}amino)-7-methyl-3,4-dihydro-2H-chromen-2-yl]benzoyl}amino)-1-methylcyclopentanecarboxylic acid]	0.85	78
COc1cccc([C@H]2C[C@@H](NC(=O)C3(c4ccc5c(c4)OC(F)(F)O5)CC3)c3cc(C(=O)O)ccc3O2)c1 [Example 44, (2R,4R)-4-({[1-(2,2-difluoro-1,3-benzodioxol-5-yl)cyclopropyl]carbonyl}amino)-2-(3-methoxyphenyl)-3,4-dihydro-2H-chromene-6-carboxylic acid]	≥ 20	14
COC(=O)c1ccc2c(c1)OCCC2NC(=O)C1(c2ccc3c(c2)OC(F)(F)O3)CC1 (centres unmarked) [Example 45, methyl 4-({[1-(2,2-difluoro-1,3-benzodioxol-5-yl)cyclopropyl]carbonyl}amino)-3,4-dihydro-2H-chromene-7-carboxylate]	1.33	89
COC(=O)c1ccc2c(c1)[C@H](NC(=O)C1(c3ccc4c(c3)OC(F)(F)O4)CC1)C[C@H](C1CCCC(OC)C1)O2 (stereo partly drawn) [Example 46, methyl (2R,4R)-4-({[1-(2,2-difluoro-1,3-benzodioxol-5-yl)cyclopropyl]carbonyl}amino)-2-(3-methoxycyclohexyl)-3,4-dihydro-2H-chromene-6-carboxylate]	5.14	27
